Measurements from patent US5621102A, “Process for preparing enantiomerically pure xanthine derivatives” (Cell Therapeutics, Inc., priority 1995, dated 1997).

Legend:
[1] = system: TNF-α release from IL-1α activated PEC; experiment: TNF-α release from IL-1α activated PEC, ELISA; format: cell-based; settings: Mus musculus, 50 ng/ml IL-1α, at the tested time points (24, 48, 72 hrs), read-out: inhibition of induced levels of TNF-α
Description: Cells were isolated and treated with or without CT1501R (250 μM) 1 hour prior to IL-1-α activation. The supernatants were collected at 24, 48 or 72 hrs following activation and assayed for TNF-α by ELISA (+/-SD).
(§1) Murine peritoneal exudate cell macrophages (PEC) were isolated by perfusion of mouse peritoneum and plated into 96-well trays at 5×10^5 cells per well. Cells were stimulated with 5 μg/ml Salmonella abortus equi-derived endotoxin CLPS; Sigma Chemical Co., L-1887) or 50 ng/ml IL-1α (Genzyme; Cambridge, Mass.) with or without the addition of CT1501R added to the cultures one hour prior to addition of the stimulus. At various times thereafter, supernatants were removed and levels of either TNF-α or IL-1α were assayed using commercial 96-well microtiter immunoassay kits (Genzyme; TNF; Endogen, Boston, Mass.; IL-1α) according to manufacturer's specifications. For the adhesion studies, early passage human umbilical vein endothelial cells (HUVEC) were obtained from commercial suppliers (Clonetics, San Diego, Calif. or Cell Systems, Seattle, Wash.) and cultured in defined, Hepes buffered, serum free medium (Cell Systems, cat 301-180) supplemented with acidic FGF (Cell Systems cat 401-111). […] After addition of […] Hanks Balanced Salt Solution (HBSS), the microtiter plate was then analyzed on a Millipore Cytofiuor fluorescent plate reader (excitation 488 nm; emission 525 nm). […]

IL-1α = experiment: mouse plasma IL-1α ELISA after endotoxin; format: in vivo, mice
Description: FIG. 7 illustrates data from mouse plasma IL-1α ELISA measurements. Data were compiled from an average of duplicate ELISA measurements from a single experiment with each point representing pooled serum from three mice.
(§2) For ELISA measurements of cytokine levels in plasma, blood was collected by retro-orbital or cardiac puncture of anesthetized mice, immediately centrifuged and the EDTA plasma stored at -70° C. Particulate free plasma was thawed on ice and cytokine levels determined utilizing commercial ELISA assays with normal mouse plasma used to generate standard curves. Murine tumor necrosis factor-α and interleukin-1α kits were purchased from Genzyme (Cambridge, Mass.) and Endogen (Boston, Mass.), respectively. Each data point was an average of two ELISA measurements made from EDTA serum pooled from three mice. The data summarized in Table 3 were compiled from two independent experiments; data from Table 4 and 5 were from single experiments of three mice per data point.
(§3) In particular, peak levels observed at 6, 12 and 18 hours post endotoxin were decreased 1.2, 4.3 and 3.2-fold, respectively. Finally, IL-6 measurements were made in a similar manner (Table 6, FIG. 8).

[2] = system: hematopoietic reconstitution following 5-FU; experiment: 5-fluorouracil (5-FU) induced bone marrow suppression in mice; format: in vivo, Balb/C mice
Description: Groups of 4 mice were phlebotomized at each time point. The values on the graph represent the means ±1 SD.
Groups of 4 mice were phlebotomized at each time point. The values on the group represent the means ±1 SD.
Groups of 4 mice were sacrificed and had one femur harvested at each time point. The values on the graph represent the means ±1 SD of the mean number of colonies per each individual tested in triplicate cultures.
Female Balb/C mice (VAF, Charles River Laboratories, 6-8 wks of age approximately 17.3-18.5 g) were treated with 5-FU at a dose of 200 mg/kg intraperitoneally (i.p.) in experiment 1 or 190 μg/kg in experiment 2. […] Mice (4 per group) were sacrificed starting 2 days after 5-FU by cardiac puncture under halothane anesthesia followed by cervical dislocation and had total white blood cell counts and differential counts performed. Platelet counts were performed using phase-contrast microscopy in duplicate. Femurs were harvested and the number of granulocyte-macrophage colony forming cells (CFU-GM) per femur were measured using a standard assay (Terry Fox Laboratories, Vancouver, British Columbia) using pokeweed mitogen spleen conditioned medium as the growth factor. Each femur was plated separately in triplicate and the mean and means for each experimental point was calculated. Standard deviations used for staffstidal analysis were deviations of the mean number of colonies measured for each femur.
Experiment 2 was similar to experiment 1 with the following exceptions: (1) the dose of 5-FU was decreased to 185 mg/kg; (2) daily blood draws were performed between days 10 and 15; and (3) platelet counts were performed.

IL-6 = experiment: mouse plasma IL-6 ELISA after endotoxin; format: in vivo, mice
Description: FIG. 8 illustrates data from mouse plasma IL-6 ELISA measurements. Data are compiled from the average of duplicate ELISA measurements from a single experiment with each point representing pooled plasma from three mice.
as §2, §3

[3] = system: adhesion of U937 cells to activated HUVEC; experiment: adhesion of U937 cells to activated HUVEC (BCECF fluorescence); format: cell-based, human; settings: 250 μM
Description: HUVEC were stimulated with either IL-1-α (100 ng/ml); TNF-α (10 ng/ml) or LPS ([…]) with or without the addition of 250 μM CT1501R one hour prior to addition of the stimulus. Twelve hours later, the cells were assayed for adhesion of BCECF-labeled U937 cells. FIG. 21 is the relative BCECF fluorescence (+/-SD) for each of the treatment groups.
as §1, with “specifications.” for “specifications. For the adhesion studies, early passage human umbilical vein endothelial cells (HUVEC) were obtained from commercial suppliers (Clonetics, San Diego, Calif. or Cell Systems, Seattle, Wash.) and cultured in defined, Hepes buffered, serum free medium (Cell Systems, cat 301-180) supplemented with acidic FGF (Cell Systems cat 401-111).”

[4] = system: murine B-cell proliferation; experiment: B-cell proliferation assay (anti-mu antibody and/or IL-4); format: cell-based; settings: stimulated by anti-mu antibody crosslinked and/or IL-4
Description: A B-cell proliferation assay determines the effect of the inventive compounds on inhibiting proliferation of stimulated B-cells, stimulated by an anti-mu antibody ([…]), IL-4 or PMA (2.5 nM). Ramos B-cell tumor cells or murine splenocytes can be incubated with a stimulating agent, an inventive compound and tritiated thymidine to measure inhibition of cell proliferation caused by the stimulating agent.

Compound: C[C@@H](O)CCCCn1c(=O)c2c(ncn2C)n(C)c1=O [CT1501R, (R)-1-(5-hydroxyhexyl)-3,7-dimethylxanthine]
- inhibition at 250 µM [1]: 50 to 70%
- decrease of peak plasma IL-1α vs endotoxin only (IL-1α; 6 hours post endotoxin): 1.2 fold
- decrease of peak plasma IL-1α vs endotoxin only (IL-1α; 12 hours post endotoxin): 4.3 fold
- decrease of peak plasma IL-1α vs endotoxin only (IL-1α; 18 hours post endotoxin): 3.2 fold
- increase in number of CFU-GM/femur during hematopoietic recovery vs control ([2]; 5-FU treated mice): approximately two-fold increase
- CFU-GM/femur vs vehicle control and day 0 ([2]; experiment 1, day 13 (p=0.024 vs vehicle, p=0.05 vs day 0)): significantly more CFU-GM/femur on day 13
- ANC (absolute neutrophil count), mean ±SD ([2]; experiment 1, day 13 after 5-FU (control 180±10/mm^3, P=0.05)): 440±17 /mm^3
- WBC of 5-FU treated mice vs vehicle control ([2]; experiment 1, days 6 and 10 (p=0.019 and 0.036)): significantly lower in vehicle treated controls than in CT1501R treated mice
- WBC vs vehicle control ([2]; experiment 2): significantly higher WBC's
- neutrophil recovery ([2]; experiment 2): Neutrophil recovery was accelerated
- number of cells per femur during hematopoietic recovery vs control ([2]; experiment 2): number of cells per femur was increased
- platelet count nadir and rate of recovery vs vehicle control ([2]; experiment 2): platelet count nadir and rate of recovery were also increased
- WBC and ANC, mice without 5-FU ([2]; i.p. bid, no 5-FU): remained within 1 SD of control values
- adverse effects, mice without 5-FU ([2]; i.p. bid, no 5-FU): no apparent adverse effects
- rise in ANC and CFU-GM/femur associated with vehicle injections, mice without 5-FU ([2]; no 5-FU, twice daily i.p. injections): prevented both the rise in ANC and rise in CFU-GM/femur
- decrease of peak plasma IL-6 vs endotoxin only (IL-6; 3 hours post endotoxin): 1.7 fold
- decrease of peak plasma IL-6 vs endotoxin only (IL-6; 6 hours post endotoxin): 2.0 fold
- decrease of peak plasma IL-6 vs endotoxin only (IL-6; 12 hours post endotoxin): 4.1 fold
- relative adhesiveness of activated HUVEC for U937 cells ([3]; 1 hour prior to TNF-α, IL-1α or LPS): marked suppression in the relative adhesiveness
- background attachment of U937 cells to HUVEC ([3]; non-activated HUVEC): no significant effect on background attachment
- inhibition of murine B-cell proliferation [4]: inhibited B-cell proliferation
